The record followed here is patent publication US7432278B2, “Dicationic imidazo[1,2-a]pyridines and 5,6,7,8-tetrahydro-imidazo[1,2-a]pyridines as antiprotozoal agents” (The University of North Carolina at Chapel Hill, priority 2004, dated 2008).

SMILES strings stand for the structures. Counter-ions that a name gives are not always drawn. Like-named read-outs stand apart in the source and are kept apart here.

The melting point is the temperature, or range, at which the solid turns liquid. For orientation: IC50 means the point on the concentration scale where inhibition reaches its midpoint.

The subject of data set [1] is T. b. r. (STIB900 acute infection). The data set can be described thus: In vivo anti-trypanosomal activity in the STIB900 mouse model. The conditions noted are these: for in vivo effectiveness on oral dosage (in words): STIB900 model; for Survival: average days of survival. As to the method: (§1) The DNA binding studies and both the in vitro and in vivo antiprotozoan studies were performed as described by Ismail. M. A., et al., J. Med. Chem., 46, 4761-4769 (2003), which is incorporated herein by reference in its entirety.
In this model five of the diamidines (8a, 8b, 7, 14b, 14a) give 4/4 cures and two, 13a and 14c, give 3/4 cures on intraperitoneal dosage. […] No attempts were made to optimize the formulation. […] One of ordinary skill in the art would appreciate that optimization of the formulation could improve the oral bioavailability of the prodrug.

Another data set deals with Plasmodium falciparum. The data set can be described thus: In vitro anti-protozoan activity against P. f. It counts as cell-based. The conditions noted are these: concentration that gives 50% growth inhibition, average of duplicate determinations, K = 1,000. As to the method: as §1
Data set [2] concerns Trypanosoma brucei rhodesiense. The data set can be described thus: In vitro anti-protozoan activity against T. b. r. The note with it: for IC50: read-out: T.b.r. IC50; for in vitro activity (in words): against T. b. r. and P. f. (Table 1). The format is cell-based. As to the method:
The DNA binding studies and both the in vitro and in vivo antiprotozoan studies were performed as described by Ismail. M. A., et al., J. Med. Chem., 46, 4761-4769 (2003), which is incorporated herein by reference in its entirety. […]

The subject of a further data set is Poly-(dA.dT)2. The data set can be described thus: DNA binding studies (ΔTm). The note with it: DNA affinity. Here is the method:
as §1
Table 1 contains the results from the DNA binding studies for the new diamidines and the in vitro results for the compounds tested against T. b. r. and P. f. […] As a representative example of this class of compounds, compound 12 was evaluated and gave a ΔTm value of only 0.3.

The mark [3] stands for this setting: Trypanosoma brucei, RHODESIENSE, concentration that gives 50% growth inhibition, average of duplicate determinations, K = 1,000.
The mark [4] stands for this setting: Mus musculus, 1440 h, po, 100 mg/kg, number of mice that survive and are parasite free for 60 days, read-out: Cures (converted).
The mark [5] stands for this setting: Mus musculus, 1440 h, ip, 20 mg/kg, number of mice that survive and are parasite free for 60 days, read-out: Cures (converted).
The mark [6] stands for this setting: Mus musculus, 1440 h, po, 75 mg/kg, number of mice that survive and are parasite free for 60 days, read-out: Cures.
[7] abbreviates: concentration that gives 50% growth inhibition, average of duplicate determinations, K = 1,000.

`N=C(N)c1ccc(-c2cccc(-c3cn4c(n3)CCC(C(=N)N)C4)c2)cc1` (centres unmarked) (as salt: salt) [Compound 13b, 2-(4′-Amidinobiphenyl-3-yl)-5,6,7,8-tetrahydro-imidazo[1,2-a]pyridine-6-carboxamidine] returned a melting point of 236 to 238 °C.
In the case of `N=C(NO)c1ccc(-c2ccc(-c3cn4cc(C(=N)NO)ccc4n3)o2)cc1` [Compound 5a, N-Hydroxy-2-{5-[4-(N-hydroxyamidino)-phenyl]-furan-2-yl}-imidazo[1,2-a]pyridine-6-carboxamidine], the responders at 50 mg/kg in data set [1] (Mus musculus, 1440 h, po, 50 mg/kg, number of mice that survive and are parasite free for 60 days, read-out: Cures (converted)) is 25%. Also, the “in vivo effectiveness on oral dosage (in words)” value (from here on “in vivo effectiveness”) in data set [1] was “did not show high in vivo effectiveness”. Moreover, the “Survival” value in data set [1] (po, 50 mg/kg) is on record as more than 19.5 days. Also, the IC50 with Plasmodium falciparum (Plasmodium falciparum) was found to be 1600 nM; in data set [2] (setting [3]) it was 2200 nM. In addition, in data set [2], the “in vitro activity (in words)” value is listed as “essentially no in vitro activity”.
As to `CONC(=N)c1ccc(-c2ccc(-c3cn4cc(C(=N)NOC)ccc4n3)o2)cc1` [Compound 6, N-Methoxy-2-{5-[4-(N-methoxyamidino)-phenyl]-furan-2-yl}-imidazo[1,2-a]pyridine-6-carboxamidine], the responders at 100 mg/kg in data set [1] (setting [4]) is 50%. Besides, the “in vivo effectiveness” value in data set [1] is given as “did not show high in vivo effectiveness”. For the same compound, the “Survival” value in data set [1] (po, 100 mg/kg) is listed as more than 39.5 days. Besides, the figures for the IC50 (with Plasmodium falciparum (Plasmodium falciparum); in data set [2] (setting [3])) were 2800 nM and 3000 nM, respectively. Further, the “in vitro activity (in words)” value in data set [2] is listed as “essentially no in vitro activity”.
With `N=C(N)c1ccc(-c2ccc(-c3cn4c(n3)CCC(C(=N)N)C4)o2)cc1` (centres unmarked) [Compound 7, 2-[5-(4-Amidinophenyl)-furan-2-yl]-5,6,7,8-tetrahydro-imidazo[1,2-a]pyridine-6-carboxamidine], in data set [1] (Mus musculus, 1440 h, ip, 5 mg/kg, number of mice that survive and are parasite free for 60 days, read-out: Cures (converted)), the responders at 5 mg/kg was 50%. Further, the responders at 20 mg/kg in data set [1] (setting [5]) was 100%. Further, the “Survival” value in data set [1] (ip, 5 mg/kg) is more than 51 days; in data set [1] (ip, 20 mg/kg), more than 60 days. Besides, the IC50 in the data set on Plasmodium falciparum (Plasmodium falciparum) came out at 1200 nM; in data set [2] (setting [3]), 52 nM. The ΔTm Poly-(dA.dT)2 in the data set on Poly-(dA.dT)2 was 15.6 °C.
`N=C(N)c1ccc(-c2ccc(-c3cn4cc(C(=N)N)ccc4n3)o2)cc1` [Compound 8a, 2-[5-(4-Amidinophenyl)-furan-2-yl]-imidazo[1,2-a]pyridine-6-carboxamidine]: the responders at 20 mg/kg in data set [1] (setting [5]) was 100%. Besides, the “Survival” value in data set [1] (ip, 20 mg/kg) is listed as more than 60 days. Also, the IC50 in the data set with Plasmodium falciparum (Plasmodium falciparum) is 14 nM; in data set [2] (setting [3]) it was 63 nM. The ΔTm Poly-(dA.dT)2 in the data set on Poly-(dA.dT)2 turned out to be 26.2 °C.
For `Cc1cc(C(=N)N)cn2cc(-c3ccc(-c4ccc(C(=N)N)cc4)o3)nc12` [Compound 8b, 2-[5-(4-Amidinophenyl)-furan-2-yl]-8-methyl-imidazo[1,2-a]pyridine-6-carboxamidine] the same measures were 100%, more than 60 days, 88 nM, 6 nM and more than 27 °C.
Consider `N=C(NO)c1ccc(-c2ccc(-c3cn4cc(C(=N)NO)ccc4n3)cc2)cc1` [Compound 11a, N-Hydroxy-2-[4′-(N-hydroxyamidino)-biphenyl-4-yl]-imidazo[1,2-a]pyridine-6-carboxamidine], for which, in data set [1] (setting [6]), the responders at 75 mg/kg stood at 0%. Moreover, the “in vivo effectiveness” value in data set [1] is reported as “did not show high in vivo effectiveness”. The “Survival” value in data set [1] (po, 75 mg/kg) was determined as 28 days. In addition, the half-inhibitory concentration (IC50) in the data set with Plasmodium falciparum (Plasmodium falciparum) was 521 nM; in data set [2] (setting [3]), more than 166000 nM. Besides, the “in vitro activity (in words)” value in data set [2] is “essentially no in vitro activity”.
`N=C(NO)c1ccc(-c2cccc(-c3cn4cc(C(=N)NO)ccc4n3)c2)cc1` [Compound 11b, N-Hydroxy-2-[4′-(N-hydroxyamidino)-biphenyl-3-yl]-imidazo[1,2-a]pyridine-6-carboxamidine] yielded a melting point of 252 to 254 °C.
Still for that read-out and setting: under `Cc1cc(C(=N)NO)cn2cc(-c3cccc(-c4ccc(C(=N)NO)cc4)c3)nc12` [Compound 11c, N-Hydroxy-2-[4′-(N-hydroxyamidino)-biphenyl-3-yl]-8-methyl-imidazo[1,2-a]pyridine-6-carboxamidine] stands 193 to 195 °C.
As for `CONC(=N)c1ccc(-c2ccc(-c3cn4cc(C(=N)NOC)ccc4n3)cc2)cc1` [Compound 12, N-Methoxy-2-[4′-(N-methoxyamidino)-biphenyl-4-yl]-imidazo[1,2-a]pyridine-6-carboxamidine], the responders at 75 mg/kg in data set [1] (setting [6]) is 0%. Moreover, the “in vivo effectiveness” value in data set [1] is given as “did not show high in vivo effectiveness”. The “Survival” value in data set [1] (po, 75 mg/kg) is 20 days. Moreover, the results for the concentration for half-maximal inhibition (IC50) (in the data set on Plasmodium falciparum (Plasmodium falciparum); in data set [2] (setting [3])) were 395 nM and 5300 nM, respectively. For the same compound, in data set [2], the “in vitro activity (in words)” value is recorded as “essentially no in vitro activity”. Further, in the data set with Poly-(dA.dT)2, the ΔTm Poly-(dA.dT)2 was determined as 0.3 °C.
Take `N=C(N)c1ccc(-c2ccc(-c3cn4c(n3)CCC(C(=N)N)C4)cc2)cc1` (centres unmarked) [Compound 13a, 2-(4′-Amidinobiphenyl-4-yl)-5,6,7,8-tetrahydro-imidazo[1,2-a]pyridine-6-carboxamidine]: the responders at 10 mg/kg in data set [1] (Mus musculus, 1440 h, ip, 10 mg/kg, number of mice that survive and are parasite free for 60 days, read-out: Cures (converted)) is 75%. Besides, the “Survival” value in data set [1] (ip, 10 mg/kg) is listed as more than 51.5 days. Besides, the half-maximal inhibitory concentration (IC50) worked out at 14 nM in the data set on Plasmodium falciparum (Plasmodium falciparum) and 116 nM in data set [2] (setting [3]). Further, in the data set on Poly-(dA.dT)2, the ΔTm Poly-(dA.dT)2 amounted to 21.3 °C.
Consider `N=C(N)c1ccc(-c2cccc(-c3cn4c(n3)CCC(C(=N)N)C4)c2)cc1` (centres unmarked) [Compound 13b, 2-(4′-Amidinobiphenyl-3-yl)-5,6,7,8-tetrahydro-imidazo[1,2-a]pyridine-6-carboxamidine], for which the results for the IC50 (with Plasmodium falciparum (Plasmodium falciparum); in data set [2] (setting [3])) were 86 nM and 226 nM, respectively. Also, the ΔTm Poly-(dA.dT)2 in the data set with Poly-(dA.dT)2 stood at 19.1 °C.
Turning to `N=C(N)c1ccc(-c2ccc(-c3cn4cc(C(=N)N)ccc4n3)cc2)cc1` [Compound 14a, 2-(4′-Amidinobiphenyl-4-yl)-imidazo[1,2-a]pyridine-6-carboxamidine], in data set [1] (setting [5]), the responders at 20 mg/kg was 100%. Further, the “Survival” value in data set [1] (ip, 20 mg/kg) is given as more than 60 days. For the same compound, the concentration for half-maximal inhibition (IC50) with Plasmodium falciparum (Plasmodium falciparum) turned out to be 43 nM; in data set [2] (setting [3]), 1 nM. Besides, the ΔTm Poly-(dA.dT)2 in the data set on Poly-(dA.dT)2 stood at 24.2 °C.
For `N=C(N)c1ccc(-c2cccc(-c3cn4cc(C(=N)N)ccc4n3)c2)cc1` [Compound 14b, 2-(4′-Amidinobiphenyl-3-yl)-imidazo[1,2-a]pyridine-6-carboxamidine] the same measures were 100%, more than 60 days, 107 nM, 22 nM and more than 27 °C.
Turning to `Cc1cc(C(=N)N)cn2cc(-c3cccc(-c4ccc(C(=N)N)cc4)c3)nc12` [Compound 14c, 2-(4′-Amidinobiphenyl-3-yl)-8-methyl-imidazo[1,2-a]pyridine-6-carboxamidine], the responders at 20 mg/kg in data set [1] (setting [5]) was 75%. Moreover, in data set [1] (ip, 20 mg/kg), the “Survival” value is more than 50 days. Moreover, the values for the IC50 (in the data set on Plasmodium falciparum (Plasmodium falciparum); in data set [2] (setting [3])) were 86 nM and 49 nM, respectively. In the data set on Poly-(dA.dT)2, the ΔTm Poly-(dA.dT)2 was more than 27 °C.
In the case of `N=C(N)c1ccc(-c2cn3c(n2)CCC(c2ccc(C(=N)N)cc2)C3)cc1` (centres unmarked) [Compound 18], the 50% inhibitory concentration (IC50) in the data set on Plasmodium falciparum worked out at 85 nM; in data set [2] (setting [7]) it was 14 nM.
For the compound `N=C(N)c1ccc(-c2ccc3nc(-c4ccc(C(=N)N)cc4)cn3c2)cc1` [Compound 19], the half-inhibitory concentration (IC50) in the data set with Plasmodium falciparum stood at 92 nM; in data set [2] (setting [7]) it was 7 nM.
For `CONC(=N)c1ccc(-c2ccc(-c3ccc(C(=N)NOC)cc3)o2)cc1` [Compound IIIa, 2,5-Bis[4-(methoxyamidino)phenyl]furan, reference compound], the responders at 100 mg/kg in data set [1] (setting [4]) was 100%. Moreover, the “Survival” value in data set [1] (po, 100 mg/kg) is reported as more than 60 days. The IC50 in the data set with Plasmodium falciparum (Plasmodium falciparum) was determined as 15.5 nM; in data set [2] (setting [3]) it was 4.5 nM. Besides, the ΔTm Poly-(dA.dT)2 in the data set with Poly-(dA.dT)2 was 25 °C.
As to `N=C(N)c1ccc(-c2ccc(-c3ccc(C(=N)N)cc3)o2)cc1` [Furamidine(IIa), 2,5-Bis(4-amidinophenyl)furan, reference compound], in data set [1] (Mus musculus, ip, 1440 h, read-out: Cures), the responders at 20 mg/kg is 0%. Besides, in data set [1] (ip, 20 mg/kg), the “Survival” value is 52.5 days. For the same compound, the IC50 in data set [2] (Trypanosoma brucei, RHODESIENSE) stood at 14600 nM.
On to `N=C(N)c1ccc(OCCCCCOc2ccc(C(=N)N)cc2)cc1` [Pentamidine(I), Pentamidine, reference compound], for which, in data set [1] (setting [5]), the responders at 20 mg/kg was 0%. Moreover, in data set [1] (ip, 20 mg/kg), the “Survival” value came to 40.8 days. For the same compound, the ΔTm Poly-(dA.dT)2 in the data set on Poly-(dA.dT)2 stood at 12 °C.
